Columns and labels:
JJN-3 cells = assay: Antiproliferative activity on JJN-3 cells (CellTiter-Glo); type: cell-based, human; conditions: 72 hr treatment, averaged values
Experimental: (§1) Determination of Antiproliferative Activity on LP-1, L-363 and JJN-3 Cells
(§2) All compounds tested were dissolved in DMSO and further dilutions were made in culture medium. Final DMSO concentration was 0.3% (v/v) in cell proliferation assays. Viability was assessed using CellTiter-Glo cell viability assay kit (Promega). The human LP-1, L-363 and JJN-3 cells (DSMZ) were cultured in RPMI 1640 medium supplemented with 2 mM L-glutamine, and 10% fetal calf serum (PAA). Cells were routinely kept as suspension cells at 37° C. in a humidified 5% CO2 atmosphere. Cells were passaged at a seeding density of 0.2×10^6/ml twice a week. Cells were seeded in black tissue culture treated 96-well plates (Perkin Elmer). Densities used for plating ranged from 2,000 to 6,000 cells per well in a total volume of 75 μl medium. After twenty four hours, drugs and/or solvents were added (25 μl) to a final volume of 100 μl. Following 72 hr of treatment plates were removed from the incubator and allowed to equilibrate to room temperature for approx 10 min. 100 μl CellTiter-Glo reagent was added to each well that was then covered (Perkin Elmer Topseal) and shaken on plate shaker for 10 min. Luminescence was measured on a HTS Topcount (Perkin Elmer). Within an experiment, the results for each treatment were the mean of 2 replicate wells. For initial screening purposes, compounds were tested using a 9 point dilution curve (serial 1:3 dilutions). For each experiment, controls (containing no drug) and a blank incubation (containing cells read at the time of compound addition) were run in parallel. The blank value was subtracted from all control and sample values. For each sample, the mean value for cell growth (in relative light units) was expressed as a percentage of the mean value for cell growth of the control.

[1] = molecular target: Recombinant Human NF-kappaB-Inducing Kinase (NIK/MAP3K14) (Homo sapiens, UniProt Q99558); assay: Inhibition of auto-phosphorylation of recombinant human NIK/MAP3K14 (AlphaScreen); type: biochemical; conditions: 25 microM ATP, 0.2 nM GST-tagged NIK/MAP3K14, 1 h at 25° C.; averaged over all measurements on all batches; read-out: Alpha-Screen IC50
Sequence of Recombinant Human NF-kappaB-Inducing Kinase (NIK/MAP3K14) (Q99558 whole entry): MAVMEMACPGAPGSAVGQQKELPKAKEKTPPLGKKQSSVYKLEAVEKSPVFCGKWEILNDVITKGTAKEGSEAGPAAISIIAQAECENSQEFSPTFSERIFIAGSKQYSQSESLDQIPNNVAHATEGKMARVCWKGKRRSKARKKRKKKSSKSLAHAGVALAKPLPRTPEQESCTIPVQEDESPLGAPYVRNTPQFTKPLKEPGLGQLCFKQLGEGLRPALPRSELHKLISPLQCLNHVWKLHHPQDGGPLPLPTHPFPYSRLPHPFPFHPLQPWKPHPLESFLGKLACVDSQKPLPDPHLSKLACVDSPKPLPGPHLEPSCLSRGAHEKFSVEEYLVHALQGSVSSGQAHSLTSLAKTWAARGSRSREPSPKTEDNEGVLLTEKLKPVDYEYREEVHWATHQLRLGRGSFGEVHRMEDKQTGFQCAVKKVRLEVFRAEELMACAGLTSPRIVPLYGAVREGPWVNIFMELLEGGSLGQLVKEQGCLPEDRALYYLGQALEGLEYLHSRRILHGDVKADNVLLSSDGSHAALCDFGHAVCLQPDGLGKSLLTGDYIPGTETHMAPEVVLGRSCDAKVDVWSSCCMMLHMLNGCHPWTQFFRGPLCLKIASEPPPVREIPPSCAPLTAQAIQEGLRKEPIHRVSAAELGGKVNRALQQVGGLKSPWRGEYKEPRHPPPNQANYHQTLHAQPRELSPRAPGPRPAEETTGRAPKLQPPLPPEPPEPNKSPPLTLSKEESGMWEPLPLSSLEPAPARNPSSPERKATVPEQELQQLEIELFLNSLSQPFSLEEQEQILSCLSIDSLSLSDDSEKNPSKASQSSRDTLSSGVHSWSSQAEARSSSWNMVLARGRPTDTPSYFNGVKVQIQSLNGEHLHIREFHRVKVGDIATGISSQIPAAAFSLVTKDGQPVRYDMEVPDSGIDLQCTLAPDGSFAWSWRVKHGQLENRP
Experimental: Inhibition of Auto-Phosphorylation of Recombinant Human NF-kappaB-Inducing Kinase (NIK/MAP3K14) Activity (AlphaScreen®)
NIK/MAP3K14 auto-phosphorylation activity was measured using the AlphaScreen® (αscreen) format (Perkin Elmer). All compounds tested were dissolved in dimethyl sulfoxide (DMSO) and further dilutions were made in assay buffer. Final DMSO concentration was 1% (v/v) in assays. Assay buffer was 50 mM Tris pH 7.5 containing 1 mM EGTA (ethylene glycol tetraacetic acid), 1 mM DTT (dithiothreitol), 0.1 mM Na3VO4, 5 mM MgCl2, 0.01% Tween® 20. Assays were carried out in 384 well Alphaplates (Perkin Elmer). Incubations consisted of compound, 25 microM Adenosine-5′-triphosphate (ATP), and 0.2 nM NIK/MAP3K14. Incubations were initiated by addition of GST-tagged NIK/MAP3K14 enzyme, carried out for 1 h at 25° C. and terminated by addition of stop buffer containing anti-phospho-IKK Ser176/180 antibody. Protein A Acceptor and Glutathione-Donor beads were added before reading using an EnVision® Multilabel Plate Reader (Perkin Elmer). Signal obtained in the wells containing blank samples was subtracted from all other wells and IC50's were determined by fitting a sigmoidal curve to % inhibition of control versus Log10 compound concentration.

L-363 cells = assay: Antiproliferative activity on L-363 cells (CellTiter-Glo); type: cell-based, human; conditions: 72 hr treatment, averaged values
Experimental: as §1, §2

LP-1 cells = assay: Antiproliferative activity on LP-1 cells (CellTiter-Glo); type: cell-based, human; conditions: 72 hr treatment, averaged values
Experimental: as §1, §2

Structure (SMILES) | IC50 [1] | EC50 (JJN-3 cells; Homo sapiens, JJN-3, 72 h) | EC50 (L-363 cells; Homo sapiens, L-363, 72 h) | EC50 (LP-1 cells; Homo sapiens, LP-1, 72 h) | EC50 (JJN-3 cells) | EC50 (L-363 cells) | EC50 (LP-1 cells)
CC(O)(C#Cc1cc2c(-c3nc(N)ncc3F)c[nH]c2c(C2CC2)n1)C1CC1 (single isomer, unassigned) [Compound 13] | 29 nM | 7 nM | 4 nM | 15 nM | – | – | –
CC(O)(C#Cc1cc2c(-c3nc(N)ncc3F)c[nH]c2c(C2CC2)n1)C1CC1 (stereo not drawn) [Compound 1] | 95 nM | 8 nM | 4 nM | 19 nM | – | – | –
Cc1nc(C#CC(C)(O)C2CC2)cc2c(-c3nc(N)ncc3F)c[nH]c12 (stereo not drawn) [Compound 2] | 7 nM | 7 nM | 5 nM | 39 nM | – | – | –
CC(C)N1CCC(n2cc(-c3nc(N)ncc3F)c3cc(C#CC(C)(O)C4CC4)ncc32)C1 (stereo not drawn) [Compound 3] | 155 nM | 133 nM | 56 nM | 147 nM | – | – | –
CC(C)n1cc(-c2nc(N)ncc2OCCN2CCOCC2)c2cc(C#CC(C)(O)C3CC3)ncc21 (stereo not drawn) [Compound 4] | 150 nM | 208 nM | 152 nM | 1190 nM | – | – | –
CC(O)(C#Cc1cc2c(-c3nc(N)ncc3F)cn(C3CN(CCC(F)(F)F)C3)c2cn1)C1CC1 (stereo not drawn) [Compound 5] | 74 nM | 227 nM | 175 nM | 377 nM | – | – | –
CCCN1CCC(n2cc(-c3nc(N)ncc3F)c3cc(C#CC(C)(O)C4CC4)ncc32)C1 (stereo not drawn) [Compound 6] | 29 nM | 62 nM | 31 nM | 69 nM | – | – | –
COCCN1CCC(n2cc(-c3nc(N)ncc3F)c3cc(C#CC(C)(O)C4CC4)ncc32)C1 (stereo not drawn) [Compound 7] | 26 nM | 222 nM | 144 nM | 320 nM | – | – | –
COCCCN1CCC(n2cc(-c3nc(N)ncc3F)c3cc(C#CC(C)(O)C4CC4)ncc32)C1 (stereo not drawn) [Compound 8] | 30 nM | 119 nM | 80 nM | 158 nM | – | – | –
CC(O)C#Cc1cc2c(-c3nc(N)ncc3F)cn(C3CN(C4CC4)C3)c2cn1 (stereo not drawn) [Compound 9] | 69 nM | 55 nM | 37 nM | 131 nM | – | – | –
CCN1CCC(n2cc(-c3nc(N)ncc3F)c3cc(C#CC(C)(O)C4CC4)nc(C)c32)C1 (stereo not drawn) [Compound 10] | 58 nM | 22 nM | 10 nM | 20 nM | – | – | –
CCCCN1CCC(n2cc(-c3nc(N)ncc3F)c3cc(C#CC(C)(O)C4CC4)ncc32)C1 (stereo not drawn) [Compound 11] | 21 nM | 62 nM | 40 nM | 52 nM | – | – | –
[2H]C([2H])([2H])C(O)(C#Cc1cc2c(-c3nc(N)ncc3F)cn(C3CCCN(CCC)C3)c2cn1)C([2H])([2H])[2H] (stereo not drawn) [Compound 12] | 56 nM | – | – | – | 38 nM | 42 nM | 76 nM
CC(O)(C#Cc1cc2c(-c3nc(N)ncc3F)cn(C3CN(C4CC4)C3)c2cn1)c1nccs1 (stereo not drawn) [Compound 14] | 16 nM | 631 nM | 1220 nM | 3980 nM | – | – | –
Cc1nc(C(C)(O)C#Cc2cc3c(-c4nc(N)ncc4F)cn(C4CN(C5CC5)C4)c3cn2)no1 (stereo not drawn) [Compound 15] | 144 nM | 3220 nM | 2720 nM | 14400 nM | – | – | –
Cc1cc(C(C)(O)C#Cc2cc3c(-c4nc(N)ncc4F)cn(C4CN(C5CC5)C4)c3cn2)no1 (stereo not drawn) [Compound 16] | 34 nM | 951 nM | 811 nM | 1800 nM | – | – | –
CC(O)(C#Cc1cc2c(-c3nc(N)ncc3F)cn(C3CN(C4CC4)C3)c2cn1)c1ncccn1 (stereo not drawn) [Compound 17] | 189 nM | 6720 nM | 8260 nM | 29000 nM | – | – | –
Cc1cc(C(C)(O)C#Cc2cc3c(-c4nc(N)ncc4F)c[nH]c3cn2)no1 (stereo not drawn) [Compound 18] | 10 nM | 1190 nM | 1090 nM | 5030 nM | – | – | –

Further lines, with some results ahead:

IC50 [1] | Structure (SMILES) | EC50 (JJN-3 cells; Homo sapiens, JJN-3, 72 h) | EC50 (L-363 cells; Homo sapiens, L-363, 72 h) | EC50 (LP-1 cells; Homo sapiens, LP-1, 72 h) | EC50 (JJN-3 cells) | EC50 (L-363 cells) | EC50 (LP-1 cells)
90 nM | [2H]C([2H])([2H])C(O)(C#Cc1cc2c(-c3nc(N)ncc3F)cn(C3CCCN(CCC)C3)c2cn1)C([2H])([2H])[2H] (single isomer, unassigned) [Compound 24] | – | – | – | 135 nM | 118 nM | 219 nM
82 nM | [2H]C([2H])([2H])C(O)(C#Cc1cc2c(-c3nc(N)ncc3F)cn(C3CCCN(CCC)C3)c2cn1)C([2H])([2H])[2H] (single isomer, unassigned) [Compound 25] | – | – | – | 102 nM | 66 nM | 163 nM
18 nM | CCCCN1CCC(n2cc(-c3nc(N)ncc3F)c3cc(C#CC(C)(O)C4CC4)ncc32)C1 (single isomer, unassigned) [Compound 26] | 101 nM | 63 nM | 114 nM | – | – | –
26 nM | CCCCN1CCC(n2cc(-c3nc(N)ncc3F)c3cc(C#CC(C)(O)C4CC4)ncc32)C1 (single isomer, unassigned) [Compound 27] | – | – | – | 92 nM | 53 nM | 100 nM
16 nM | CC(O)(C#Cc1cc2c(-c3nc(N)ncc3F)cn(C3CN(C4CC4)C3)c2cn1)c1nccs1 (single isomer, unassigned) [Compound 28] | – | – | 4260 nM | 408 nM | 402 nM | –
735 nM | CC(O)(C#Cc1cc2c(-c3nc(N)ncc3F)cn(C3CN(C4CC4)C3)c2cn1)c1nccs1 (single isomer, unassigned) [Compound 29] | – | – | – | 1930 nM | 3080 nM | 3530 nM
20 nM | CC(O)(C#Cc1cc2c(-c3nc(N)ncc3F)c[nH]c2cn1)c1nccs1 (single isomer, unassigned) [Compound 30] | – | – | – | 2080 nM | 4760 nM | 11600 nM
2 nM | CC(O)(C#Cc1cc2c(-c3nc(N)ncc3F)c[nH]c2cn1)c1nccs1 (single isomer, unassigned) [Compound 31] | – | – | – | 634 nM | 1210 nM | 5740 nM
379 nM | Cc1cc(C(C)(O)C#Cc2cc3c(-c4nc(N)ncc4F)c[nH]c3cn2)no1 (single isomer, unassigned) [Compound 32] | – | – | – | 4340 nM | 5500 nM | 19600 nM
3 nM | Cc1cc(C(C)(O)C#Cc2cc3c(-c4nc(N)ncc4F)c[nH]c3cn2)no1 (single isomer, unassigned) [Compound 33] | – | – | – | 593 nM | 472 nM | 4120 nM
3 nM | CC(O)(C#Cc1cc2c(-c3nc(N)ncc3F)c[nH]c2cn1)c1nccs1 (stereo not drawn) [Compound 19] | 1010 nM | 1270 nM | 7620 nM | – | – | –
2 nM | Nc1ncc(F)c(-c2c[nH]c3cnc(C#CC4(O)CCCC4)cc23)n1 [Compound 20] | 152 nM | 126 nM | 1120 nM | – | – | –
95 nM | Nc1ncc(F)c(-c2cn(C3CN(C4CC4)C3)c3cnc(C#CC4(O)CCCC4)cc23)n1 [Compound 21] | 464 nM | 408 nM | 1000 nM | – | – | –
37 nM | Nc1ncc(F)c(-c2c[nH]c3c(C4CC4)nc(C#CC4(O)CCCC4)cc23)n1 [Compound 22] | 37 nM | 24 nM | 110 nM | – | – | –
67 nM | Cc1cc(C(C)(O)C#Cc2cc3c(-c4nc(N)ncc4F)c[nH]c3c(C3CC3)n2)no1 (stereo not drawn) [Compound 23] | 442 nM | 368 nM | 1280 nM | – | – | –

Reference: US10005776B2, “Compounds as NIK inhibitors” (Janssen Pharmaceutica NV, priority 2014, dated 2018)
